As usually defined, the Kb is the equilibrium dissociation constant of an antagonist, usually derived from a functional assay.

One assay has as its target T1, human orexin-2 (hOX2) receptors (Homo sapiens, UniProt O43614).
T1 construct: expressed in transfected cells
T1 sequence (O43614 1-444): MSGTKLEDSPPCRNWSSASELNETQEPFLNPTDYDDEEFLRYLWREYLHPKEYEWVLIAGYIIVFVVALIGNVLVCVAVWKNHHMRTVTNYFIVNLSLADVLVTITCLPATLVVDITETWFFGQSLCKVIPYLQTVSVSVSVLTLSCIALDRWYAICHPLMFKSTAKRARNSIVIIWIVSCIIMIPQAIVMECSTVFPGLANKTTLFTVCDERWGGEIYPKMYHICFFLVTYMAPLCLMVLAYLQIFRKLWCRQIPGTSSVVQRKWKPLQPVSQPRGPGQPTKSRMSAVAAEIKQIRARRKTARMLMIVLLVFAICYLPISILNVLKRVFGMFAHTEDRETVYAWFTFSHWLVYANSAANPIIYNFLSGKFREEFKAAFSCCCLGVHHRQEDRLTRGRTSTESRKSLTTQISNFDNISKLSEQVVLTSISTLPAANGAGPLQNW
Put plainly: Intracellular Ca2+ mobilization assay (FLIPR), antagonism of orexin-A in CHO(dHFr-) cells expressing hOX2. The format is cell-based. Particulars: CHO(dHFr-)-OX2R cells; orexin-A at EC80 as agonist; Kb=IC50/(1+[A]/EC50); read-out: Kb (μM) OX2R (human). As for the experimental part:
Intracellular Ca^2+ Mobilization Assay
The Chinese Hamster Ovary (dHFr−) mutant cell line stably expressing human orexin-1 (hOX1) or human orexin-2 (hOX2) receptors were maintained in Dulbecco's Modified Eagle Medium (1×) with GlutaMax™ 1, 4500 mg/L D-Glucose and Sodium Pyruvate (Catalog No. 31966-021, Invitrogen, Carlsbad, Calif.), 5% dialyzed fetal calf serum (Catalog No. 26400-044), 100 μg/ml penicillin and 100 μg/ml streptomycin. The cells were seeded at 5×10^4 cells/well in the poly-D-lysine treated, 96-well, black/clear-bottomed plates (Catalog No. BD356640, BD Biosciences, Palo Alto, Calif.). 24 h later, the cells were loaded for 1 h at 37° C. with 4 μM Flou-4 acetoxymethyl ester (Catalog No. F-14202, Molecular Probes, Eugene, Oreg.) in FLIPR buffer (1×HBSS, 20 mM HEPES, 2.5 mM Probenecid). Hanks' Balanced Salt Solution (HBSS) (10×) (catalog No. 14065-049) and HEPES (1M) (catalog No. 15630-056) were purchased from Invitrogen, Carlsbad, Calif. Probenecid (250 mM) (catalog No. P8761) was from Sigma, Buchs, Switzerland. The cells were washed five times with FLIPR buffer to remove excess dye and intracellular calcium mobilization, [Ca^2′]I were measured using a Fluorometric Imaging Plate Reader (FLIPR-96, Molecular Devices, Menlo Park, Calif.) as described previously (Malherbe et al., Mol. Pharmacol., 64, 823-832, 2003). Orexin A (catalog No. 1455, Toris Cookson Ltd, Bristol, UK) was used as agonist. Orexin A (50 mM stock solution in DMSO) was diluted in FLIPR buffer+0.1% BSA. The EC50 and EC80 values of orexin-A were measured daily from standard agonist concentration-response curves in CHO(dHFr−)-OX1R and -OX2R cell lines. All compounds were dissolved in 100% DMSO Inhibition curves were determined by addition of 11 concentrations (0.0001-10 μM) of inhibitory compounds and using EC80 value of orexin-A as agonist (a concentration which gave 80% of max agonist response, determined daily). The antagonists were applied 25 min (incubation at 37° C.) before the application of the agonist. Responses were measured as peak increase in fluorescence minus basal, normalized to the maximal stimulatory effect induced by EC80 value of orexin-A or orexin-B Inhibition curves were fitted according to the Hill equation: y=100/(1+(x/IC50)^nH), where nH=slope factor using Excel-fit 4 software (Microsoft).
Kb values were calculated according to the following equation Kb=IC50/(1+[A]/EC50) where A is the concentration of agonist added which is very close to agonist EC80 value, and IC50 and EC50 values were derived from the antagonist inhibition and orexin-A or B agonist curves, respectively.
A general note: A change in cytosolic calcium serves as a functional read-out for many receptors and channels.
For the compound `O=C(C1CCCN(S(=O)(=O)c2ccccc2Cl)C1)N1CCCC1c1ccccc1` (centres unmarked) [Example 7, [1-(2-Chloro-benzenesulfonyl)-piperidin-3-yl]-(2-phenyl-pyrrolidin-1-yl)-methanone], the Kb came to 0.02 µM. The same measure, in the same setting: with `O=C(C1CCCN(S(=O)(=O)c2ccccc2Cl)C1)N1CCCC1c1ccc(F)cc1` (centres unmarked) [Example 3, [1-(2-Chloro-benzenesulfonyl)-piperidin-3-yl]-[2-(4-fluoro-phenyl)-pyrrolidin-1-yl]-methanone] the figure was 0.0788 µM; with `COc1ccccc1S(=O)(=O)N1CCCC(C(=O)N2CCCC2c2ccccc2)C1` (centres unmarked) [Example 11, [1-(2-Methoxy-benzenesulfonyl)-piperidin-3-yl]-(2-phenyl-pyrrolidin-1-yl)-methanone], 0.0053 µM; with `COc1ccc(Cl)cc1S(=O)(=O)N1CCCC(C(=O)N2CCCCC2c2ccccc2)C1` (centres unmarked) [Example 16, [1-(5-Chloro-2-methoxy-benzenesulfonyl)-piperidin-3-yl]-(2-phenyl-piperidin-1-yl)-methanone], 0.0592 µM. On the same count and under the same terms, the value for `O=C(C1CCCN(S(=O)(=O)c2cccc(Cl)c2)C1)N1CCCC1c1ccccc1` (centres unmarked) [Example 8, [1-(3-Chloro-benzenesulfonyl)-piperidin-3-yl]-(2-phenyl-pyrrolidin-1-yl)-methanone] was 0.0219 µM; that for `COc1ccccc1S(=O)(=O)N1CCCC(C(=O)N2CCCCC2c2ccccc2)C1` (centres unmarked) [Example 10, [1-(2-Methoxy-benzenesulfonyl)-piperidin-3-yl]-(2-phenyl-piperidin-1-yl)-methanone] was 0.0226 µM. Consider `COc1ccc(Cl)cc1S(=O)(=O)N1CCCC(C(=O)N2CCCC2c2ccccc2)C1` (centres unmarked) [Example 14, [1-(5-Chloro-2-methoxy-benzenesulfonyl)-piperidin-3-yl]-(2-phenyl-pyrrolidin-1-yl)-methanone], for which the Kb was determined as 0.0138 µM. On the same count and under the same terms, with `O=C(C1CCCN(S(=O)(=O)c2ccccc2Cl)C1)N1CCCC1c1ccccc1Cl` (centres unmarked) [Example 17, [1-(2-Chloro-benzenesulfonyl)-piperidin-3-yl]-[2-(2-chloro-phenyl)-pyrrolidin-1-yl]-methanone] the figure was 0.0113 µM.

The same assay, now with this note: Table 1; CHO(dHFr-)-OX2R cells; orexin-A at EC80 as agonist; Kb=IC50/(1+[A]/EC50); read-out: Kb hOx2.
In the case of `O=C(C1CCCN(S(=O)(=O)c2ccc(F)cc2)C1)N1CCCCC1c1ccccc1` (centres unmarked) [Example 6, [1-(4-Fluoro-benzenesulfonyl)-piperidin-3-yl]-(2-phenyl-piperidin-1-yl)-methanone], the Kb is 0.756 µM. Consider `O=C(C1CCCN(S(=O)(=O)c2ccccc2Cl)C1)N1CCCC1c1cc(Cl)cc(Cl)c1` (centres unmarked) [Example 19, [1-(2-Chloro-benzenesulfonyl)-piperidin-3-yl]-[2-(3,5-dichloro-phenyl)-pyrrolidin-1-yl]-methanone], for which the Kb was found to be 0.67 µM. As for `O=C(C1CCCN(S(=O)(=O)c2ccccc2Cl)C1)N1CCCCC1c1ccccc1` (centres unmarked) [Example 4, [1-(2-Chloro-benzenesulfonyl)-piperidin-3-yl]-(2-phenyl-piperidin-1-yl)-methanone], the Kb is 0.118 µM. Same read-out and setting: the value for `O=C(C1CCCN(S(=O)(=O)c2cccc(Cl)c2)C1)N1CCCCC1c1ccccc1` (centres unmarked) [Example 5, [1-(3-Chloro-benzenesulfonyl)-piperidin-3-yl]-(2-phenyl-piperidin-1-yl)-methanone] was 0.55 µM; that for `O=C(C1CCCN(S(=O)(=O)c2ccccc2)C1)N1CCCCC1c1ccccc1` (centres unmarked) [Example 12, (1-Benzenesulfonyl-piperidin-3-yl)-(2-phenyl-piperidin-1-yl)-methanone] was 0.309 µM.

With `O=C(C1CCCN(S(=O)(=O)c2ccccc2Cl)C1)N1CCCC1c1ccc(Cl)c(Cl)c1` (centres unmarked) [Example 18, [1-(2-Chloro-benzenesulfonyl)-piperidin-3-yl]-[2-(3,4-dichloro-phenyl)-pyrrolidin-1-yl]-methanone], the Kb came out at 0.75 µM. Take `COc1cccc(S(=O)(=O)N2CCCC(C(=O)N3CCCC3c3ccccc3)C2)c1` (centres unmarked) [Example 9, [1-(3-Methoxy-benzenesulfonyl)-piperidin-3-yl]-(2-phenyl-pyrrolidin-1-yl)-methanone]: the Kb was found to be 0.122 µM. For the compound `O=C(C1CCCN(S(=O)(=O)c2ccccc2)C1)N1CCCC1c1ccccc1` (centres unmarked) [Example 15, (1-Benzenesulfonyl-piperidin-3-yl)-(2-phenyl-pyrrolidin-1-yl)-methanone], the Kb was found to be 0.258 µM. Regarding `O=C(C1CCCN(S(=O)(=O)c2ccc(F)cc2)C1)N1CCCC1c1ccccc1` (centres unmarked) [Example 13, [1-(4-Fluoro-benzenesulfonyl)-piperidin-3-yl]-(2-phenyl-pyrrolidin-1-yl)-methanone], the Kb is 0.334 µM.
